Data on 36 molecules can be found in patent US20100105651A1, “ANTAGONISTS OF SNS SODIUM CHANNELS” (priority 2005, published 2010).

The assay concerns the target T1, human NaV1.8 (hNaV1.8) ion channel (Homo sapiens, UniProt Q9Y5Y9).
T1 construct: expressed in transfected cells
Briefly: Inhibition of Human NaV1.8 stably expressed in SH-SY-5Y cells (membrane potential dye fluorescence assay). The note with it: SH-SY-5Y cells stably expressing hNaV1.8; FLIPR membrane potential dye; 10 μM pyrethroid, 250 nM TTX; test range 100 μM-0.05 μM; read-out: hNav1.8 IC50. The format is cell-based.

T1 sequence (Q9Y5Y9 whole entry): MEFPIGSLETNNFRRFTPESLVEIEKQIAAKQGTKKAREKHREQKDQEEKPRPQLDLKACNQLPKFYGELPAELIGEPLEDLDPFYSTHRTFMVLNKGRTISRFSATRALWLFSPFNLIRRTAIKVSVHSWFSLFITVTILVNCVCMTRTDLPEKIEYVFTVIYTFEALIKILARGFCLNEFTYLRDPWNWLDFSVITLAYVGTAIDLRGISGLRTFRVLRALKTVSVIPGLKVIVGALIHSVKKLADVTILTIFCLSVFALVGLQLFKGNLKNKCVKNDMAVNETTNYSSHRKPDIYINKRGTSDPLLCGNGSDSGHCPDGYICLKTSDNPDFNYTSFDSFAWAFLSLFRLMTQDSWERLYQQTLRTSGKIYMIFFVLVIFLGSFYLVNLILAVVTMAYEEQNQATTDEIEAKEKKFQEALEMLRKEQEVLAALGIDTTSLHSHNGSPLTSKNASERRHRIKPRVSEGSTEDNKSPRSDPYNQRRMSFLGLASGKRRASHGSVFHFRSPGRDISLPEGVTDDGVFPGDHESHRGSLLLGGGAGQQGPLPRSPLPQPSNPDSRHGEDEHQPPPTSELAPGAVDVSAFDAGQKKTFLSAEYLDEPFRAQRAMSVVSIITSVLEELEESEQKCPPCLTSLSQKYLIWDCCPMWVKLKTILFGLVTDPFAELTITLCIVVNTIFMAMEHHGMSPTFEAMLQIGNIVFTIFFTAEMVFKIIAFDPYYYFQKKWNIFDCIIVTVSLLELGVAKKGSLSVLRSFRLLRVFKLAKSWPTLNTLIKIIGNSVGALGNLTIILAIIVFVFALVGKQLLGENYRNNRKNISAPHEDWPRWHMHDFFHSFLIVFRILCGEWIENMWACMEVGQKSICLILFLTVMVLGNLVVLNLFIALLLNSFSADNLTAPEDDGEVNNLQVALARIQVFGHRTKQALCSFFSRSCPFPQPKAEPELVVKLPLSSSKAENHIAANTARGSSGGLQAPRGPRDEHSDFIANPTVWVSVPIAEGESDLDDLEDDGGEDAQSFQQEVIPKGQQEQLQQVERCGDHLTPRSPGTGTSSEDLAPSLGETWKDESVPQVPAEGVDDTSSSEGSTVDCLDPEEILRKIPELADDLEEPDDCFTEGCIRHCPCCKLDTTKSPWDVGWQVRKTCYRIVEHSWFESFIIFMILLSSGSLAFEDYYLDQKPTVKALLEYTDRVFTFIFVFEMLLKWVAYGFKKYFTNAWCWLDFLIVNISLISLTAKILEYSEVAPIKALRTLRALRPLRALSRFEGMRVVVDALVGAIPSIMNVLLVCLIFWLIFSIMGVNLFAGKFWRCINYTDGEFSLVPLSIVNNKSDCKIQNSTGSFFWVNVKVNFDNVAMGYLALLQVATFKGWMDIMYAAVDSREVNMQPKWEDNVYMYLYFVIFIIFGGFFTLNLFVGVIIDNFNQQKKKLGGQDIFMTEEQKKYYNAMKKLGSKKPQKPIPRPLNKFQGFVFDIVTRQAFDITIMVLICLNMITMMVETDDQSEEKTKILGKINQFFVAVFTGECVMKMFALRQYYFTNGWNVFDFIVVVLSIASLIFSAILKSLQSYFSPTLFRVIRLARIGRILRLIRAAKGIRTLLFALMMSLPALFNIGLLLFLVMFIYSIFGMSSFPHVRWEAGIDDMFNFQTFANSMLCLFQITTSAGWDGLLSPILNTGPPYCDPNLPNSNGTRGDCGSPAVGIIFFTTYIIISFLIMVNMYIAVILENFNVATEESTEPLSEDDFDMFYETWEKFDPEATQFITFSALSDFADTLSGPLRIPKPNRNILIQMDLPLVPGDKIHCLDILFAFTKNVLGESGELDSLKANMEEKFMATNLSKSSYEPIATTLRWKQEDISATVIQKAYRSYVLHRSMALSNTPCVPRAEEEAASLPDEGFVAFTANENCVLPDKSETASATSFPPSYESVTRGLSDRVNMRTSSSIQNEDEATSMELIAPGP

What is called IC50 is the point on the concentration scale where inhibition reaches its midpoint. As for `CC(NC1CN(C(=O)Nc2ccc(Oc3ccc(F)cc3)cc2)C1)c1ccccc1Cl` (stereo not drawn) [Example 94, 3-[1-(2-Chloro-phenyl)-ethylamino]-azetidine-1-carboxylic acid [4-(4-fluoro-phenoxy)-phenyl]-amide], the IC50 is 540 nM.

For the molecule `CC(c1ccc(F)cc1)N(C)C1CN(C(=O)Nc2cccc(C(F)(F)F)c2)C1` (stereo not drawn) [Example 95, 3-{[1-(4-Fluoro-phenyl)-ethyl]-methyl-amino}-azetidine-1-carboxylic acid (3-trifluoromethyl-phenyl)-amide], the IC50 worked out at 4550 nM.

For `Cc1ccccc1C(C)N(C)C1CN(C(=O)Nc2cccc(C(F)(F)F)c2)C1` (stereo not drawn) [Example 96, 3-[Methyl-(1-o-tolyl-ethyl)-amino]-azetidine-1-carboxylic acid (3-trifluoromethyl-phenyl)-amide], the IC50 was 3020 nM.

Consider `CC(c1ccccc1Cl)N(C)C1CN(C(=O)Nc2cccc(C(F)(F)F)c2)C1` (stereo not drawn) [Example 97, 3-{[1-(2-Chloro-phenyl)-ethyl]-methyl-amino}-azetidine-1-carboxylic acid (3-trifluoromethyl-phenyl)-amide], for which the IC50 came to 3640 nM.

With `CC(c1ccc(F)cc1)N(C)C1CN(C(=O)Nc2ccc(OC(F)(F)F)cc2)C1` (stereo not drawn) [Example 98, 3-{[1-(4-Fluoro-phenyl)-ethyl]-methyl-amino}-azetidine-1-carboxylic acid (4-trifluoromethoxy-phenyl)-amide], the IC50 amounted to 3190 nM.

`CN(C1CN(C(=O)Nc2ccc(Oc3ccccc3)cc2)C1)C(C)(C)c1ccccc1` [Example 99, 3-[Methyl-(1-methyl-1-phenyl-ethyl)-amino]-azetidine-1-carboxylic acid (4-phenoxy-phenyl)-amide]: the IC50 stood at 630 nM.

For the molecule `CC(c1ccc(F)cc1Cl)N(C)C1CN(C(=O)Nc2cccc(Oc3ccccc3)c2)C1` (stereo not drawn) [Example 100, 3-{[1-(2-Chloro-4-fluoro-phenyl)-ethyl]-methyl-amino}-azetidine-1-carboxylic acid (3-phenoxy-phenyl)-amide], the IC50 turned out to be 1210 nM.

For the molecule `Cc1ccc(C(C)NC2CN(C(=O)Nc3ccc(Oc4ccccc4)cc3)C2)c(C)c1` (stereo not drawn) [Example 101, 3-[1-(2,4-Dimethyl-phenyl)-ethylamino]-azetidine-1-carboxylic acid (4-phenoxy-phenyl)-amide], the IC50 is 290 nM.

For the molecule `CC(NC1CN(C(=O)Nc2cccc(Oc3ccccc3)c2)C1)c1ccccc1Cl` (stereo not drawn) [Example 102, 3-[1-(2-Chloro-phenyl)-ethylamino]-azetidine-1-carboxylic acid (3-phenoxy-phenyl)-amide], the IC50 was 800 nM.

Take `CC(NC1CN(C(=O)Nc2cccc(Oc3ccccc3)c2)C1)c1ccc(F)cc1` (stereo not drawn) [Example 103, 3-[1-(4-Fluoro-phenyl)-ethylamino]-azetidine-1-carboxylic acid (3-phenoxy-phenyl)-amide]: the IC50 worked out at 730 nM.

For the molecule `Cc1ccccc1C(C)NC1CN(C(=O)Nc2ccc(C(F)(F)F)cc2)C1` (stereo not drawn) [Example 104, 3-(1-o-Tolyl-ethylamino)-azetidine-1-carboxylic acid (4-trifluoromethyl-phenyl)-amide], the IC50 was determined as 2540 nM.

For `Cc1ccc(C(C)N(C)C2CN(C(=O)Nc3ccc(Oc4ccccc4)cc3)C2)c(C)c1` (stereo not drawn) [Example 105, 3-{[1-(2,4-Dimethyl-phenyl)-ethyl]-methyl-amino}-azetidine-1-carboxylic acid (4-phenoxy-phenyl)-amide], the IC50 is 420 nM.

Turning to `Cc1ccccc1C(C)NC1CN(C(=O)Nc2cccc(Oc3ccccc3)c2)C1` (stereo not drawn) [Example 106, 3-(1-o-Tolyl-ethylamino)-azetidine-1-carboxylic acid (3-phenoxy-phenyl)-amide], the IC50 amounted to 560 nM.

`Cc1ccccc1C(C)N(C)C1CN(C(=O)Nc2cccc(Oc3ccccc3)c2)C1` (stereo not drawn) [Example 107, 3-[Methyl-(1-o-tolyl-ethyl)-amino]-azetidine-1-carboxylic acid (3-phenoxy-phenyl)-amide]: the IC50 was 510 nM.

Consider `Cc1ccccc1C(C)NC1CN(C(=O)Nc2ccc(Oc3ccc(F)cc3)cc2)C1` (stereo not drawn) [Example 108, 3-(1-o-Tolyl-ethylamino)-azetidine-1-carboxylic acid [4-(4-fluoro-phenoxy)-phenyl]-amide], for which the IC50 came out at 270 nM.

In the case of `CC(c1ccc(F)cc1)N(C)C1CN(C(=O)Nc2cccc(Oc3ccccc3)c2)C1` (stereo not drawn) [Example 109, 3-{[1-(4-Fluoro-phenyl)-ethyl]-methyl-amino}-azetidine-1-carboxylic acid (3-phenoxy-phenyl)-amide], the IC50 was 470 nM.

As to `Cc1ccccc1C(C)N(C)C1CN(C(=O)Nc2ccc(C(F)(F)F)cc2)C1` (stereo not drawn) [Example 110, 3-[Methyl-(1-o-tolyl-ethyl)-amino]-azetidine-1-carboxylic acid (4-trifluoromethyl-phenyl)-amide], the IC50 is 2240 nM.

Consider `Cc1cc(F)ccc1C(C)NC1CN(C(=O)Nc2ccc(Oc3ccccc3)cc2)C1` (stereo not drawn) [Example 111, 3-[1-(4-Fluoro-2-methyl-phenyl)-ethylamino]-azetidine-1-carboxylic acid (4-phenoxy-phenyl)-amide], for which the IC50 was 630 nM.

As for `Cc1cc(F)ccc1C(C)NC1CN(C(=O)Nc2cccc(Oc3ccccc3)c2)C1` (stereo not drawn) [Example 112, 3-[1-(4-Fluoro-2-methyl-phenyl)-ethylamino]-azetidine-1-carboxylic acid (3-phenoxy-phenyl)-amide], the IC50 amounted to 660 nM.

Turning to `Cc1cc(F)ccc1C(C)NC1CN(C(=O)Nc2cccc(C(F)(F)F)c2)C1` (stereo not drawn) [Example 113, 3-[1-(4-Fluoro-2-methyl-phenyl)-ethylamino]-azetidine-1-carboxylic acid (3-trifluoromethyl-phenyl)-amide], the IC50 was determined as 2840 nM.

For the molecule `Cc1cc(F)ccc1C(C)NC1CN(C(=O)Nc2ccc(C(F)(F)F)cc2)C1` (stereo not drawn) [Example 114, 3-[1-(4-Fluoro-2-methyl-phenyl)-ethylamino]-azetidine-1-carboxylic acid (4-trifluoromethyl-phenyl)-amide], the IC50 stood at 2300 nM.

`COc1ccc(C(C)NC2CN(C(=O)Nc3ccc(C(F)(F)F)cc3)C2)cc1` (stereo not drawn) [Example 115, 3-[1-(4-Methoxy-phenyl)-ethylamino]-azetidine-1-carboxylic acid (4-trifluoromethyl-phenyl)-amide]: the IC50 turned out to be 2430 nM.

Turning to `Cc1cc(F)ccc1C(C)N(C)C1CN(C(=O)Nc2ccc(Oc3ccccc3)cc2)C1` (stereo not drawn) [Example 117, 3-{[1-(4-Fluoro-2-methyl-phenyl)-ethyl]-methyl-amino}-azetidine-1-carboxylic acid (4-phenoxy-phenyl)-amide], the IC50 amounted to 890 nM.

In the case of `Cc1cccc(C(C)NC2CN(C(=O)Nc3ccc(Oc4ccccc4)cc3)C2)c1` (stereo not drawn) [Example 118, 3-(1-m-Tolyl-ethylamino)-azetidine-1-carboxylic acid (4-phenoxy-phenyl)-amide], the IC50 was found to be 430 nM.

For the molecule `Cc1cc(F)ccc1C(C)NC1CN(C(=O)Nc2ccc(Oc3ccc(F)cc3)cc2)C1` (stereo not drawn) [Example 119, 3-[1-(4-Fluoro-2-methyl-phenyl)-ethylamino]-azetidine-1-carboxylic acid [4-(4-fluoro-phenoxy)-phenyl]-amide], the IC50 is 460 nM.

On to `CC(NC1CN(C(=O)Nc2ccc(Oc3ccccc3)cc2)C1)c1ccc(N2CCCCC2)cc1` (stereo not drawn) [Example 120, 3-[1-(4-Piperidin-1-yl-phenyl)-ethylamino]-azetidine-1-carboxylic acid (4-phenoxy-phenyl)-amide], for which the IC50 worked out at 590 nM.

For the molecule `Cc1ccc(C(C)NC2CN(C(=O)Nc3ccc(Oc4ccccc4)cc3)C2)cc1` (stereo not drawn) [Example 121, 3-(1-p-Tolyl-ethylamino)-azetidine-1-carboxylic acid (4-phenoxy-phenyl)-amide], the IC50 is 400 nM.

`Cc1ccc(C(C)NC2CN(C(=O)Nc3ccc(C(F)(F)F)cc3)C2)cc1` (stereo not drawn) [Example 122, 3-(1-p-Tolyl-ethylamino)-azetidine-1-carboxylic acid (4-trifluoromethyl-phenyl)-amide]: the IC50 stood at 1700 nM.

With `O=C(Nc1ccc(Oc2ccccc2)cc1)N1CC(NC2COc3ccccc32)C1` (stereo not drawn) [Example 123, 3-(2,3-Dihydro-benzofuran-3-ylamino)-azetidine-1-carboxylic acid (4-phenoxy-phenyl)-amide], the IC50 is 1700 nM.

For the molecule `CC(NC1CN(C(=O)Nc2ccc(C(F)(F)F)cc2)C1)c1ccccc1Cl` (stereo not drawn) [Example 124, 3-[1-(2-Chloro-phenyl)-ethylamino]-azetidine-1-carboxylic acid (4-trifluoromethyl-phenyl)-amide], the IC50 was determined as 2480 nM.

Take `CC(NC1CN(C(=O)Nc2ccc(C(F)(F)F)cc2)C1)c1ccc(C#N)cc1` (stereo not drawn) [Example 126, 3-[1-(4-Cyano-phenyl)-ethylamino]-azetidine-1-carboxylic acid (4-trifluoromethyl-phenyl)-amide]: the IC50 was 23700 nM.

Take `CC(NC1CN(C(=O)Nc2ccc(Oc3ccc(F)cc3)cc2)C1)c1ccc(C#N)cc1` (stereo not drawn) [Example 127, 3-[1-(4-Cyano-phenyl)-ethylamino]-azetidine-1-carboxylic acid [4-(4-fluoro-phenoxy)-phenyl]-amide]: the IC50 amounted to 2110 nM.

Turning to `O=C(Nc1ccc(Oc2ccccc2)cc1)N1CC(NCc2c(F)cccc2F)C1` [Example 128, 3-(2,6-Difluoro-benzylamino)-azetidine-1-carboxylic acid (4-phenoxy-phenyl)-amide], the IC50 turned out to be 830 nM.

Turning to `O=C(Nc1ccc(Oc2ccc(F)cc2)cc1)N1CC(NCc2c(F)cccc2F)C1` [Example 129, 3-(2,6-Difluoro-benzylamino)-azetidine-1-carboxylic acid [4-(4-fluoro-phenoxy)-phenyl]-amide], the IC50 turned out to be 1490 nM.

Take `CC(NC1CN(C(=O)Nc2ccc(Oc3ccccc3)cc2)C1)c1c(F)cccc1F` (stereo not drawn) [Example 130, 3-[1-(2,6-Difluoro-phenyl)-ethylamino]-azetidine-1-carboxylic acid (4-phenoxy-phenyl)-amide]: the IC50 worked out at 750 nM.

`CC(NC1CN(C(=O)Nc2ccc(Oc3ccc(F)cc3)cc2)C1)c1c(F)cccc1F` (stereo not drawn) [Example 131, 3-[1-(2,6-Difluoro-phenyl)-ethylamino]-azetidine-1-carboxylic acid [4-(4-fluoro-phenoxy)-phenyl]-amide]: the IC50 came out at 530 nM.
